Experimental data published in patent publication US11401271B2, “Fused heterocyclic compound, pyrazole-ring-containing fused heterocyclic compound, agricultural composition containing thereof, and method of using the composition” (SOUTH CHINA AGRICULTURAL UNIVERSITY, priority 2017, dated 2022).
Where two headings read alike, the source gives them in different places.

Assays:
Test in all cases: whole plant or invertebrate
Assay type in all cases: in vivo
[1] = test system: Aphis craccivora; details: for Aphis craccivora Mortality (%): immersion 5 seconds, counted after 24 hours; for mortality at 500 ppm: Aphis craccivora, read-out: Aphis craccivora Mortality (%) 500 ppm
Method: (3) Insecticidal Activity on Aphid Adults.
Aphid is a homoptera pest with a piercing-sucking mouthpart and is a common vegetable pest. Aphis craccivora were taken as test objects and tested by using an impregnation method.
Operation process: Samples were weighed accurately, and respectively added with 200 μL of dimethyl sulfoxide to prepare 10 g/L mother liquor which was diluted into a concentration of 500 ppm with an aqueous solution containing 0.05% of Tween-80 during the test. After the wingless Aphis craccivora adults stably sucked on bean sprouts, the wingless Aphis craccivora adults together with the bean sprouts were immersed into a liquid medicine with a concentration of 500 ppm, taken out after 5 seconds, air-dried naturally, transferred into a clean vessel, and fed at a constant temperature of 23° C. Each concentration was repeated 3 times, and an aqueous solution containing 0.05% of Tween-80 was used as a control group. After being treated for 24 hours, a number of dead Aphis craccivora was counted, and a mortality (%) was calculated according to a formula that mortality (%)=(number of live Aphis craccivora in the control group−number of treated live Aphis craccivora)/number of live Aphis craccivora in the control group*100%.

[2] = test system: Spodoptera exigua; details: for mortality at 500 ppm: Spodoptera exigua, read-out: Spodoptera exigua Mortality (%) 500 ppm
Method: (2) Insecticidal Activity on 2nd-Instar Larvae of Spodoptera exigua.
Spodoptera exigua is a lepidoptera pest with a chewing mouthpart and is a common vegetable pest. The 2nd-instar larvae of Spodoptera exigua were used as test objects and tested by using a leaf immersion feeding method.
(§1) Operation process: Samples were weighed accurately, and respectively added with 200 μL, of dimethyl sulfoxide to prepare 10 g/L mother liquor which was diluted into a concentration of 500 ppm with an aqueous solution containing 0.05% of Tween-80 during the test. A hole puncher with a diameter of 1.0 cm was used to make cleaned cabbage leaves into leaf discs. The leaf discs were immersed in a liquid medicine, taken out after 5 seconds, air-dried naturally, and transferred into a clean vessel. About 35 2nd -instar larvae of Spodoptera exigua were put into the vessel and fed at a constant temperature of 28° C. Each concentration was repeated 3 times, and an aqueous solution containing 0.05% of Tween-80 was used as a control group. After being treated for 24 hours, a number of dead Spodoptera exigua was counted, and a mortality (%) was calculated according to a formula that mortality (%)=(number of live larvae in the control group −number of treated live larvae)/number of live larvae in the control group * 100%.

[3] = test system: Plutella xylostella; details: for mortality at 500 ppm: Plutella xylostella, read-out: Plutella xylostella Mortality (%) 500 ppm
Method: (1) Insecticidal Activity on 2nd-Instar Larvae of Plutella xylostella.
Plutella xylostella (L.) is a lepidoptera pest with a chewing mouthpart and is a common vegetable pest. The 2nd-instar larvae of Plutella xylostella were used as test objects and tested by using a leaf immersion feeding method.
as §1, with “μL” for “μL,”, “2nd-instar” for “2nd -instar”, “Plutella xylostella” for “Spodoptera exigua”, “group−number” for “group −number”, “group*100%.” for “group * 100%.”

[4] = test system: Solenopsis invicta; details: for mortality at 100 ppm: Solenopsis invicta
Method: (4) Insecticidal Activity on Solenopsis invicta.
As a hymenoptera pests and a social insect, Solenopsis invicta is one of the most destructive invasive organisms. Solenopsis invicta were used as test objects and tested by using a water test tube poison-feeding method.
Operation process: Samples were weighed accurately, and respectively added with 200 μL of dimethyl sulfoxide to prepare 10 g/L mother liquor which was diluted into a concentration of 100 ppm with a mixed aqueous solution containing 0.05% of Tween-80 and 5% of honey during the test. […] The raising test tube was placed in a raising box horizontally, and a small amount of ham sausages were added to the raising test tube as food to raise the Solenopsis invicta at a constant temperature of 25° C. After being treated for 24 hours and 72 hours, a number of live Solenopsis invicta and a number of dead Solenopsis invicta were counted, and a mortality (%) was calculated according to a formula that mortality (%)=(number of live Solenopsis invicta in the control group−number of treated live Solenopsis invicta)/number of live Solenopsis invicta in the control group*100%.

[5] = 500 ppm, 2nd-instar larvae, leaf immersion feeding
[6] = 100 ppm, 24 h, water test tube poison-feeding
[7] = 100 ppm, 72 h, water test tube poison-feeding
[8] = 24 h, read-out: Solenopsis invicta Mortality (%) 100 ppm 24 h, 100 ppm, 24 h, water test tube poison-feeding
[9] = 72 h, read-out: Solenopsis invicta Mortality (%) 100 ppm 72 h, 100 ppm, 72 h, water test tube poison-feeding
[10] = 500 ppm, wingless adults, impregnation method, 24 hours
[11] = 500 ppm, 2nd-instar larvae, leaf immersion feeding, 24 hours
[12] = 100 ppm, 24 h, water test tube poison-feeding, read-out: Solenopsis invicta Mortality (%) 100 ppm 24 h
[13] = 100 ppm, 72 h, water test tube poison-feeding, read-out: Solenopsis invicta Mortality (%) 100 ppm 72 h

## 9-chloro-2-cyano-3-cyclohexanesulfinyl-5-(2′2-dimethoxy)-7-trifluoromethyl-4,5-dihydropyrazole[1,5-α]quinazoline-5-methyl formate [d-12]
[1]; 500 ppm, wingless adults
  Aphis craccivora Mortality (%): 100%
[2]; [5]
  Spodoptera exigua Mortality (%): 96%
[3]; [5]
  Plutella xylostella Mortality (%): 86%
[4]; [6]
  Solenopsis invicta Mortality (%) 24 h: 20%
[4]; [7]
  Solenopsis invicta Mortality (%) 72 h: 100%

## COC(=O)CC1(C(=O)OC)Nc2c([S+]([O-])C(F)(F)F)c(C#N)nn2-c2cc(C(F)(F)F)cc(Cl)c21 (racemic) [c-8]
[1]; 500 ppm, wingless adults
  Aphis craccivora Mortality (%): 100%
[2]; [5]
  Spodoptera exigua Mortality (%): 100%
[3]; [5]
  Plutella xylostella Mortality (%): 100%
[4]; [6]
  Solenopsis invicta Mortality (%) 24 h: 20%
[4]; [7]
  Solenopsis invicta Mortality (%) 72 h: 100%

## CC1(C)Nc2c(Br)c(C#N)nn2-c2ccccc21 [Compound A2]
[1]; 24 h
  mortality at 500 ppm: 100%
[2]; 24 h
  mortality at 500 ppm: 100%
[3]
  mortality at 500 ppm: 97%
[4]; [8]
  mortality at 100 ppm: 19%
[4]; [9]
  mortality at 100 ppm: 93%

## CN1c2c(Br)c(C#N)nn2-c2ccccc2C1(C)C [Compound A3]
[1]; 24 h
  mortality at 500 ppm: 100%
[2]; 24 h
  mortality at 500 ppm: 100%
[3]
  mortality at 500 ppm: 90%
[4]; [8]
  mortality at 100 ppm: 25%
[4]; [9]
  mortality at 100 ppm: 100%

## CNC(=O)c1nn2c(c1Br)NC(C)(C)c1ccccc1-2 [Compound A6]
[1]; 24 h
  mortality at 500 ppm: 100%
[2]; 24 h
  mortality at 500 ppm: 100%
[3]
  mortality at 500 ppm: 100%
[4]; [8]
  mortality at 100 ppm: 44%
[4]; [9]
  mortality at 100 ppm: 100%

## CCSc1c(C#N)nn2c1NC(C)(C)c1ccccc1-2 [Compound A9]
[1]; 24 h
  mortality at 500 ppm: 100%
[2]; 24 h
  mortality at 500 ppm: 100%
[3]
  mortality at 500 ppm: 100%
[4]; [8]
  mortality at 100 ppm: 24%
[4]; [9]
  mortality at 100 ppm: 100%

## Nc1ccc2c(c1)-n1nc(C(F)(F)F)c(Br)c1NC2(C(F)(F)F)C(F)(F)F [Compound A11]
[1]; 24 h
  mortality at 500 ppm: 100%
[2]; 24 h
  mortality at 500 ppm: 100%
[3]
  mortality at 500 ppm: 100%
[4]; [8]
  mortality at 100 ppm: 34%
[4]; [9]
  mortality at 100 ppm: 100%

## CC[S+]([O-])c1c(C(F)(F)F)nn2c1NC(C(F)(F)F)(C(F)(F)F)c1ccc(N)cc1-2 (stereo not shown) [Compound A14]
[1]; 24 h
  mortality at 500 ppm: 100%
[2]; 24 h
  mortality at 500 ppm: 90%
[3]
  mortality at 500 ppm: 100%
[4]; [8]
  mortality at 100 ppm: 26%
[4]; [9]
  mortality at 100 ppm: 93%

## CC(C)(C)Nc1c(C#N)nn2c1NC(C)(C)c1ccccc1-2 [Compound A16]
[1]; 24 h
  mortality at 500 ppm: 100%
[2]; 24 h
  mortality at 500 ppm: 100%
[3]
  mortality at 500 ppm: 86%
[4]; [8]
  mortality at 100 ppm: 20%
[4]; [9]
  mortality at 100 ppm: 87%

## CC(=O)Nc1c(C#N)nn2c1NC(C)(C)c1ccccc1-2 [Compound A17]
[1]; 24 h
  mortality at 500 ppm: 100%
[2]; 24 h
  mortality at 500 ppm: 100%
[3]
  mortality at 500 ppm: 100%
[4]; [8]
  mortality at 100 ppm: 34%
[4]; [9]
  mortality at 100 ppm: 100%

## CC1(C)Nc2c(NC(=O)Oc3ccccc3)c(C#N)nn2-c2ccccc21 [Compound A18]
[1]; [10]
  mortality at 500 ppm: 100%
[2]; [11]
  mortality at 500 ppm: 100%
[3]; [5]
  mortality at 500 ppm: 100%
[4]; [12]
  mortality at 100 ppm: 44%
[4]; [13]
  mortality at 100 ppm: 100%

## Cc1ccc(S(=O)(=O)Nc2c(C#N)nn3c2NC(C)(C)c2ccccc2-3)cc1 [Compound A20]
[1]; 24 h
  mortality at 500 ppm: 100%
[2]; 24 h
  mortality at 500 ppm: 90%
[3]
  mortality at 500 ppm: 100%
[4]; [8]
  mortality at 100 ppm: 26%
[4]; [9]
  mortality at 100 ppm: 93%

## N#Cc1cnn2c1NC(N)(CN)c1ccc(Cl)cc1-2 (stereo not shown) [Compound A24]
[1]; in vivo
  Aphis craccivora Mortality (%) 500 ppm: 100%
[2]; in vivo
  Spodoptera exigua Mortality (%) 500 ppm: 100%
[3]; in vivo
  Plutella xylostella Mortality (%) 500 ppm: 100%
[4]; in vivo
  Solenopsis invicta Mortality (%) 100 ppm 24 h: 44%
  Solenopsis invicta Mortality (%) 100 ppm 72 h: 100%

## CSc1nn2c(c1C#N)NC(F)(C(F)(F)F)c1ccccc1-2 (stereo not shown) [Compound A25]
[1]; 24 h
  mortality at 500 ppm: 100%
[2]; 24 h
  mortality at 500 ppm: 100%
[3]
  mortality at 500 ppm: 100%
[4]; [8]
  mortality at 100 ppm: 38%
[4]; [9]
  mortality at 100 ppm: 100%

## CSc1nn2c(c1C(N)=O)NC(F)(C(F)(F)F)c1ccccc1-2 (stereo not shown) [Compound A28]
[1]; 24 h
  mortality at 500 ppm: 100%
[2]; 24 h
  mortality at 500 ppm: 90%
[3]
  mortality at 500 ppm: 100%
[4]; [8]
  mortality at 100 ppm: 29%
[4]; [9]
  mortality at 100 ppm: 97%

## CSc1nn2c(c1C(=O)N(C)C)NC(F)(C(F)(F)F)c1ccccc1-2 (stereo not shown) [Compound A29]
[1]; 24 h
  mortality at 500 ppm: 100%
[2]; 24 h
  mortality at 500 ppm: 100%
[3]
  mortality at 500 ppm: 100%
[4]; [8]
  mortality at 100 ppm: 26%
[4]; [9]
  mortality at 100 ppm: 95%

## CSc1nn2c(c1C#N)N(C(=O)Oc1ccccc1)C(F)(C(F)(F)F)c1ccccc1-2 (stereo not shown) [Compound A31]
[1]; [10]
  mortality at 500 ppm: 100%
[2]; [11]
  mortality at 500 ppm: 100%
[3]; [5]
  mortality at 500 ppm: 100%
[4]; [12]
  mortality at 100 ppm: 20%
[4]; [13]
  mortality at 100 ppm: 100%

## CSc1nn2c(c1C#N)N(S(C)(=O)=O)C(F)(C(F)(F)F)c1ccccc1-2 (stereo not shown) [Compound A33]
[1]; 24 h
  mortality at 500 ppm: 100%
[2]; 24 h
  mortality at 500 ppm: 100%
[3]
  mortality at 500 ppm: 100%
[4]; [8]
  mortality at 100 ppm: 24%
[4]; [9]
  mortality at 100 ppm: 100%

## C=CCN1c2c(C#N)c(SC)nn2-c2ccccc2C1(F)C(F)(F)F (stereo not shown) [Compound A34]
[1]; 24 h
  mortality at 500 ppm: 100%
[2]; 24 h
  mortality at 500 ppm: 100%
[3]
  mortality at 500 ppm: 96%
[4]; [8]
  mortality at 100 ppm: 28%
[4]; [9]
  mortality at 100 ppm: 97%

## CSc1nn2c(c1C#N)N(CCBr)C(F)(C(F)(F)F)c1ccccc1-2 (stereo not shown) [Compound A35]
[1]; 24 h
  mortality at 500 ppm: 100%
[2]; 24 h
  mortality at 500 ppm: 100%
[3]
  mortality at 500 ppm: 100%
[4]; 24 h, read-out: Solenopsis invicta Mortality (%) 100 ppm 24 h
  mortality at 100 ppm: 31%
[4]; 72 h, read-out: Solenopsis invicta Mortality (%) 100 ppm 72 h
  mortality at 100 ppm: 99%

## CCNc1cc2n(n1)-c1cnccc1C(F)(CC(F)(F)F)N2 (stereo not shown) [Compound A37]
[1]; 24 h
  mortality at 500 ppm: 100%
[2]; 24 h
  mortality at 500 ppm: 100%
[3]
  mortality at 500 ppm: 100%
[4]; [8]
  mortality at 100 ppm: 20%
[4]; [9]
  mortality at 100 ppm: 100%

## C=CCN(CC)c1cc2n(n1)-c1cnccc1C(F)(CC(F)(F)F)N2 (stereo not shown) [Compound A38]
[1]; 24 h
  mortality at 500 ppm: 100%
[2]; 24 h
  mortality at 500 ppm: 90%
[3]
  mortality at 500 ppm: 100%
[4]; [8]
  mortality at 100 ppm: 26%
[4]; [9]
  mortality at 100 ppm: 93%

## CC(=O)Nc1cc2n(n1)-c1cnccc1C(F)(CC(F)(F)F)N2 (stereo not shown) [Compound A39]
[1]; 24 h
  mortality at 500 ppm: 100%
[2]; 24 h
  mortality at 500 ppm: 100%
[3]
  mortality at 500 ppm: 100%
[4]; [8]
  mortality at 100 ppm: 24%
[4]; [9]
  mortality at 100 ppm: 100%
